The source of these data is patent US6589977B1, “Pyrrole derivatives and cell death inhibitors” (Sagami Chemical Research Center, priority 1999, dated 2003).

For test [1], the system named is cerebellar granule cells. Briefly: Inhibition of low potassium medium-induced death of cerebellar granule cells. As to conditions: compound 10 μM; low potassium medium (5 mM KCl); after 18 hours. It is filed as cell-based, rats. As to the method: (§1) According to a known method (A Dissection and Tissue Culture Manual of the Nervous System, p. 211, 1989, Alan R, Liss, Inc.), cerebellar granule cells were isolated from the cerebellum of 7 days old rats and cultured. Namely, after conducting isolation procedures described in the above literature, the resulting cells were resuspended in DMEM containing 10% fetal bovine serum, 25 mM KCl and 2 mM glutamine, and seeded in poly-lysine coated plates. After the cells were cultured in a CO2 incubator for 48 hours according to a conventional method, cytosine-1-β-D(+)-arabinofuranoside (Ara-C) (10 μM) was added thereto, and the cell was continued to culture. The following experiments were conducted with the cells of 7 to 14 days old from the start day of the cultivation, the cells having completed neurite extension sufficiently.
It is known that neuronal cells undergo cell death when they are cultured in a medium of low potassium (Proc. Natl. Acad. Sci. U.S.A., volume 90, p 10989, 1993). […] When the test compound 1 (10 μM), the test compound 10 (10 μM), or the test compound 15 (10 μM)coexisted, 50%, 80%, and 85% of cells were respectively alive on an observation made similarly after 18 hours.

Test [2] has as its system Porcine ovarian granulosa cells (POGC). Briefly: Inhibition of SNP-induced apoptosis of porcine ovarian granulosa cells. In kind it is cell-based. As to conditions: SNP 0.5 mM; cells observed after 18 hours. From the text: (§2) Porcine ovaries were washed with PBS buffer, and Porcine ovarian granulosa cells (POGC) were collected by aspiration from follicles with a syringe. Cell fraction was recovered as a precipitate by centrifugation of the suspension. The operation of suspending the cell fraction into PBS buffer and subjecting the resulting suspension to centrifugation was repeated three times to wash the cells. The POGC obtained as a precipitate were suspended again into a culture medium (DMEM containing 10% fetal bovine serum) and cell clumps were disrupted by pipetting. The cell suspension was passed through a mesh to remove contaminating tissue fragments, and then pipetted in 24-well plates for cell culture. The cell suspension was cultured for 2 days in a CO2 incubator according to a conventional procedure (37° C., 5% CO2). Then, the medium was refreshed to remove floating cells and the cultivation was continued further 2 to 3 days until the cells reached subconfluency (0.7 to 2×10^5 cell/well). After the attaching cells were washed with serum-free medium, they were cultured in a serum-free DMEM (containing 5 μg/mL of transferrin, and 40 ng/mL of hydrocortisone, 4 mg/mL of bovine serum albumin (BSA), 100 nM androstendione) and it was possible to continue to culture cells with relatively immature differentiation. […] The cell death was also confirmed by MTT assay. Then, various concentrations of the test compounds were added to the present culture system and the cells were observed after 18 hours.

The subject of another test is erythrocytes. The test can be described thus: Inhibition of hydrogen peroxide-induced hemolysis of erythrocytes. In kind it is cell-based, Human. As to conditions: compound 10 μM added prior to hydrogen peroxide (300 μM); after 24 hours. As to the method:
Human blood was collected and precipitated by a centrifugation (1000 rpm, 5 min) and the precipitate containing erythrocytes was washed three times with PBS and resuspended (about 5×10^8 cells/ml) with DMEM containing 10% fetal bovine serum. Cell suspensions were dispensed into a 48-well plate to become subconfluent (about 5×10^5 cells/0.5 ml/well). When hydrogen peroxide (300 μM) was added and cultivation continued for 24 hours, more than 95% of erythrocytes underwent hemolysis and become dark and ghost-like on an observation under a light microscopy.

A further test has as its system Hela 3S cells. The test can be described thus: Anti-cell death effect on Hela 3S cells cultured in Krebs Ringer Buffer. In kind it is cell-based, human. As to conditions: compound 10 μM. As to the method:
Hela 3S cells (culture medium: DMEM containing 10% fetal bovine serum), a cell line derived from human cervical cancer, were seeded into multi 48 well plates and cultured in a CO2 incubator according to conventional procedures. Confirming the subconfluency of a cell culture, the medium was replaced with Krebs Ringer Buffer (120 mM NaCl, […], 1 mM KH2PO4, […], 20 mM HEPES, pH 7.4, 2.57 g/L glucose, 0.05 g/L Phenol Red) and washed three times with the same buffer and cultivation continued in the same buffer. […] When the test compound 1 (10 μM) or the test compound 15 (10 μM) was added in the present culture system and cultivation continued similarly, the proportion of normal cells increased 59% or 77% respectively, and the proportion of necrosis-like cells decreased (1% or 0%, respectively), indicating the anti-cell death effects.

Test [3] concerns cerebellar granule cells. The test can be described thus: Inhibition of hydrogen peroxide-induced death of cerebellar granule cells. As to conditions: compound 10 μM added prior to hydrogen peroxide (10 μM); after 12 hours. In kind it is cell-based, rats. As to the method:
as §1

The subject of another test is undifferentiated POGC. Briefly: Inhibition of hydrogen peroxide-induced cell death of undifferentiated POGC. In kind it is cell-based, Porcine. As to conditions: compound 0.3 μM added prior to hydrogen peroxide (100 μM); observation after 18 hour.
Description: as §2, with “Then, various concentrations of the test compounds were added to the present culture system and the cells were observed after 18 hours.” left out

As for `Cn1cc(-c2c[nH]c3ccccc23)c(-c2c[nH]c3ccccc23)c1` [Compound 1], the results for the cells alive with cerebellar granule cells [1] and with cerebellar granule cells [3] were 50% and “more than 80%”, respectively. The “MEC (Minimum effective concentration for more than 95% of inhibition of cell death)” value in test [2] was found to be 0.3 µM. Besides, the inhibition of hemolysis entry in the test on erythrocytes is “almost complete inhibition of hemolysis”. Moreover, the “proportion of necrosis-like cells” value with Hela 3S cells (after 5 hours (11% without compound)) was found to be 1%. Further, the “proportion of normal cells” value with Hela 3S cells (after 5 hours (42% normal without compound)) was found to be 59%.
Consider `Cn1cc(-c2c[nH]c3ccccc23)c(-c2cn(C(=O)OC(C)(C)C)c3ccccc23)c1` [Compound 2], for which the “MEC (Minimum effective concentration for more than 95% of inhibition of cell death)” value in test [2] came out at 0.3 µM.
Same read-out and setting: the same measure for `Cn1cc(-c2cn(C(=O)OC(C)(C)C)c3ccccc23)c(-c2cn(C(=O)OC(C)(C)C)c3ccccc23)c1` [Compound 3]: 10 µM.
Regarding `Cn1cc(-c2c[nH]c3ccccc23)c(-c2cn(CCCN)c3ccccc23)c1` [Compound 4], the “MEC (Minimum effective concentration for more than 95% of inhibition of cell death)” value in test [2] came to 0.3 µM.
On the same count and under the same terms, the same measure for `Cn1cc(-c2cn(CCCN)c3ccccc23)c(-c2cn(CCCN)c3ccccc23)c1` [Compound 5]: 0.1 µM; for `CN(C)CCCn1cc(-c2cn(C)cc2-c2c[nH]c3ccccc23)c2ccccc21` [Compound 6]: 0.3 µM; for `CN(C)CCCn1cc(-c2cn(C)cc2-c2cn(CCCN(C)C)c3ccccc23)c2ccccc21` [Compound 7]: 1 µM.
On the same count and under the same terms, the same measure for `Cn1cc(-c2c[nH]c3ccccc23)c(-c2cn(C)c3ccccc23)c1` [Compound 8]: 0.3 µM; for `Cn1cc(-c2cn(C)c3ccccc23)c(-c2cn(C)c3ccccc23)c1` [Compound 9]: 0.3 µM.
With `Cc1cccc2c(-c3cn(C)cc3-c3c[nH]c4c(C)cccc34)c[nH]c12` [Compound 10], the cells alive in the test with cerebellar granule cells [1] is 80%; in the test on cerebellar granule cells [3], above 95%. The “MEC (Minimum effective concentration for more than 95% of inhibition of cell death)” value in test [2] is 0.03 µM. Further, the inhibition of hemolysis result in the test with erythrocytes was “almost complete inhibition of hemolysis”.
Consider `Cc1[nH]c2ccccc2c1-c1cn(C)cc1-c1c(C)[nH]c2ccccc12` [Compound 11], for which the “MEC (Minimum effective concentration for more than 95% of inhibition of cell death)” value in test [2] is 0.1 µM.
The same measure, in the same setting: to `Cn1cc(-c2c[nH]c3ccc(F)cc23)c(-c2c[nH]c3ccc(F)cc23)c1` [Compound 12] belongs 1 µM; to `COc1ccc2[nH]cc(-c3cn(C)cc3-c3c[nH]c4ccc(OC)cc34)c2c1` [Compound 13], 0.3 µM; to `COc1ccc2c(c1)c(-c1cn(C)cc1-c1cn(C)c3ccc(OC)cc13)cn2C` [Compound 14], 1 µM.
Turning to `Cc1ccc2c(c1)c(-c1cn(C)cc1-c1cn(CCCN)c3ccc(C)cc13)cn2C` [Compound 16], the “MEC (Minimum effective concentration for more than 95% of inhibition of cell death)” value in test [2] was 0.1 µM. Besides, in the test on undifferentiated POGC, the “inhibition of cell death” value is listed as “complete inhibition of cell death” and the “survival of the cells” value is “more than 95%”.
For `c1ccc(-n2cc(-c3c[nH]c4ccccc34)c(-c3c[nH]c4ccccc34)c2)cc1` [Compound 17], in test [2], the “MEC (Minimum effective concentration for more than 95% of inhibition of cell death)” value was 0.3 µM.
The same measure, in the same setting: the same measure for `c1ccc(Cn2cc(-c3c[nH]c4ccccc34)c(-c3c[nH]c4ccccc34)c2)cc1` [Compound 18]: 0.3 µM.
Regarding `Cc1ccc2[nH]cc(-c3cn(C)cc3-c3cn(C(=O)OC(C)(C)C)c4ccc(C)cc34)c2c1` [Compound 22], the “MEC (Minimum effective concentration for more than 95% of inhibition of cell death)” value in test [2] amounted to 0.3 µM.
The same measure, in the same setting: the same measure for `Cc1ccc2c(c1)c(-c1cn(C)cc1-c1cn(C(=O)OC(C)(C)C)c3ccc(C)cc13)cn2C(=O)OC(C)(C)C` [Compound 23]: 10 µM.
The same measure, in the same setting: to `Cc1ccc2[nH]cc(-c3cn(C)cc3-c3cn(C)c4ccc(C)cc34)c2c1` [Compound 24, 3-(1,5-dimethyl-1H-indol-3-yl)-4-(5-methyl-1H-indol-3-yl)-1-methylpyrrole] belongs 0.1 µM.
